The text below walks through data of patent publication US6103720A, “Ketobenzamides as calpain inhibitors” (BASF Aktiengesellschaft, priority 1996, dated 2000).

The target in one experiment is T1, Human μ-calpain (Homo sapiens, UniProt P07384).
T1 construct: Human μ-calpain is isolated from erythrocytes; from tissue; host or cells: human erythrocytes (purified on DEAE Sepharose, phenyl Sepharose, Superdex 200 and Blue Sepharose)
T1 sequence (P07384 1-714): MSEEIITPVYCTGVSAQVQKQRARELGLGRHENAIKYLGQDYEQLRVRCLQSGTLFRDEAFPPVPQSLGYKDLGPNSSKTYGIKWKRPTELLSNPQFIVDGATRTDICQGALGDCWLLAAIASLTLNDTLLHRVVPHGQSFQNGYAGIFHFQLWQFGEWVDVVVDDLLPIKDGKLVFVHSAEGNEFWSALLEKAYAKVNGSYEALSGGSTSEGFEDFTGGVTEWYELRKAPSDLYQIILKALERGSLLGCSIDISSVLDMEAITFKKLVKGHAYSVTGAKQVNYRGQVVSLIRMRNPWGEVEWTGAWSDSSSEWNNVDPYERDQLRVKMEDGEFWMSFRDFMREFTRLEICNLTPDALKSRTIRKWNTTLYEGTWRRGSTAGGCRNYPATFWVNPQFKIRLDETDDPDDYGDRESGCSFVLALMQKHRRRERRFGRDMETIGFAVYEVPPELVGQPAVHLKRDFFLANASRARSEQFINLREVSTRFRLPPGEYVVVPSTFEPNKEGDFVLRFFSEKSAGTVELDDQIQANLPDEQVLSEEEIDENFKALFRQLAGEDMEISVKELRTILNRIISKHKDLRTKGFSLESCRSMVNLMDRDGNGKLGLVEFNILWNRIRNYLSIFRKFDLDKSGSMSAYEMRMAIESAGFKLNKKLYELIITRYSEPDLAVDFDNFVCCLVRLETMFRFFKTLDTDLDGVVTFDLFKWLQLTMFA
T1 sequence (P04632 1-268 partner): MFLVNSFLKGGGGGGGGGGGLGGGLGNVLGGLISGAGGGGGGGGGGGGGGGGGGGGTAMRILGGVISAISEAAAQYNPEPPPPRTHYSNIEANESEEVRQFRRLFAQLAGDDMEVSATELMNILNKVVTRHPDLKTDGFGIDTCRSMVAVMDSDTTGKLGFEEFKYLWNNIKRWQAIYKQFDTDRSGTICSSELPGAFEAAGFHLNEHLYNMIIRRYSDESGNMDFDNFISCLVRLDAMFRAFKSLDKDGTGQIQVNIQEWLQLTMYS
In words: Calpain I test (Ki, fluorogenic substrate Suc-Leu-Tyr-AMC). The class given is biochemical. The settings on record: human μ-calpain from erythrocytes, reversible inhibition. On the procedure: Calpain I and Calpain II Test
The inhibitory properties of calpain inhibitors are tested in buffer containing 50 mM tris-HCl, pH 7.5; 0.1 M NaCl; 1 mM dithiotreithol [sic]: 0.11 mM CaCl2, using the fluorogenic calpain substrate Suc-Leu-Tyr-AMC (25 mM, dissolved in DMSO, Bachem/Switzerland) (Sasaki et al. J. Biol. Chem. 1984, Vol. 259, 12489-12494). Human μ-calpain is isolated from erythrocytes following the methods of Croall and DeMartino (BBA 1984, Vol. 788, 348-355) and Graybill et al. (Bioorg. & Med. Lett. 1995, Vol. 5, 387-392). After several chromatographic steps (DEAE Sepharose, phenyl Sepharose, Superdex 200 and Blue Sepharose), the enzyme is obtained at a purity of […], as assessed by SDS-PAGE, Western blot analysis and N-terminal sequencing. The fluorescence of the cleavage product 7-amino-4-methylcoumarin (AMC) is followed in a Spex-Fluorolog fluorimeter at λex =380 nm and λem =460 nm. […]
In a typical experimental mixture, 10 μl of substrate (250 μm final concentration) and then 10 μl of μ-calpain (2 μg/ml final concentration, ie. 18 nM) are added to a 1 ml cuvette which contains buffer. The calpain-mediated cleavage of the substrate is measured for from 15 to 20 min. […] Ki values are determined using the customary equation for reversible inhibition, ie. […]

Another experiment has as its system calpain. The settings on record: M. R. Angelastro et al., J. Med. Chem. 1990,33, 11-13; cited from earlier work.

Some results are limits rather than exact numbers.

In general, Ki refers to a dissociation constant, usually derived from enzyme kinetics or from competition with a known ligand. A low value points to a stronger hold on the target.

“(S)-N-(1-Ethoxycarbonyl-1-oxo-3-phenylpropan-2-yl)-2-phenylbenzamide [Example 24]” had a Ki on Human μ-calpain of less than 10 µM.

As to `COC(=O)C(=O)C(Cc1ccccc1)NC(=O)c1ccccc1` (centres unmarked) [Ph-CONH--CH(CH2 Ph)--CO--COOCH3], in the experiment with calpain, the “inhibitor of calpain (in words)” value was “weak inhibitor”.
